Measurements: US20060035889A1, “Treatment for methamphetamine addiction and reduction of methamphetamine use using serotonin antagonists” (priority 2004, published 2006)

Experiments:
α1 = conditions: read-out: receptor affinity (Ki) α1; cited from earlier work
5-HT3 = molecular target: T1, 5-HT3 (Homo sapiens, UniProt P46098); conditions: read-out: receptor affinity (Ki) 5-HT3; cited from earlier work
T1 sequence (P46098 24-478): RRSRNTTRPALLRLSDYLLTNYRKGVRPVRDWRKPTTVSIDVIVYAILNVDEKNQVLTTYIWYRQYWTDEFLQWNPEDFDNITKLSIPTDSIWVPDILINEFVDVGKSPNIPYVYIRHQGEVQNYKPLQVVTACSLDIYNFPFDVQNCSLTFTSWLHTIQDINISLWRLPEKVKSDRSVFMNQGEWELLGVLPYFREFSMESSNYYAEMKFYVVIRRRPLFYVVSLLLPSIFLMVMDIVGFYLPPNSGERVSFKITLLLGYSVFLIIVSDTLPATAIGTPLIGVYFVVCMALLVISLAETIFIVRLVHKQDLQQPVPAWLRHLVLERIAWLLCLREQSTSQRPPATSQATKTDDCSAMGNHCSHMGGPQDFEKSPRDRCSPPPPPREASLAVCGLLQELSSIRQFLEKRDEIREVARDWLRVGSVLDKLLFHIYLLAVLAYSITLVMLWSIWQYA

5-HT2C = molecular target: T2, 5-HT2C (Homo sapiens, UniProt P28335); conditions: read-out: receptor affinity (Ki) 5-HT2C; cited from earlier work
T2 sequence (P28335 33-458): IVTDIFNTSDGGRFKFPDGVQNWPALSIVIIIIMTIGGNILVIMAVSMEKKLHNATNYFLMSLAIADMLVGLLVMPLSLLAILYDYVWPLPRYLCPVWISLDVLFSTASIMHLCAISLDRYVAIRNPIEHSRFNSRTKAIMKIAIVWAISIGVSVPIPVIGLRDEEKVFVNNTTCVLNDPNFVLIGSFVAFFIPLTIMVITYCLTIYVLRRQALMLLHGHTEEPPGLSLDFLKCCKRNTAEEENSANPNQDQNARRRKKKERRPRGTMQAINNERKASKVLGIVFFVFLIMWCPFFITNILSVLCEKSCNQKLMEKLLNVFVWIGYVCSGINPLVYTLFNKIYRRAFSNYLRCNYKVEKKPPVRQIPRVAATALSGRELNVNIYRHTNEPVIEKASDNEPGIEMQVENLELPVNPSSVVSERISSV

D2 = D2 (Homo sapiens, UniProt P14416); conditions: read-out: receptor affinity (Ki) D2; cited from earlier work
Sequence of D2 (P14416 whole entry): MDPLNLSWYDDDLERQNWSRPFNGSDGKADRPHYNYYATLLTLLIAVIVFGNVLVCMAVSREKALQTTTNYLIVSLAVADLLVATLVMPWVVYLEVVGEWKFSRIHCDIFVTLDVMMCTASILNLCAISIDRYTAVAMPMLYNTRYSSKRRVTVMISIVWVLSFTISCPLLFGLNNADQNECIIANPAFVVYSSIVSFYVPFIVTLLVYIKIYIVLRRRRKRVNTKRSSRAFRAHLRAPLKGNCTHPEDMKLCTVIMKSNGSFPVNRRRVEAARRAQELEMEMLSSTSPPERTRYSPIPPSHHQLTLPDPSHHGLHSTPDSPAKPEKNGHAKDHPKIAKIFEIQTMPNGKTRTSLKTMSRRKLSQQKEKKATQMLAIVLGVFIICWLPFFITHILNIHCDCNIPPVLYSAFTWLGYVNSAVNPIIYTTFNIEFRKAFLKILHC

METH-sensitized rats = test: Reversal of METH-induced behavioral sensitization by 5-HT2A/2C antagonists (motor activity after acute METH challenge); assay type: in vivo, rat
Description: Automation of observational evaluations was accomplished using computerized small animal monitors (AccuScan Instr. Inc., Columbus, Ohio). […] One feature of drug-induced behavioral sensitization is heterogeneity of motor responses and the AccuScan monitors quantify numerous behavioral indices. This is a critical point for the motor profile is exquisitely related to METH dose, the drug history of the rat and observation time. After 3- or 31-days of withdrawal from repeated METH injections, rats were allowed to achieve baseline motor activity with a 30 min habituation period, challenged with 1 mg/kg sc METH and monitored for 90 min.
Multiple 5-HT2A/2C antagonists with differing pharmacological profiles were tested for their ability to ameliorate METH-induced behavioral sensitization when administered after sensitization has developed. […] The doses were selected based on the antagonists' ability to block 5-HT2A- and 5-HT2C-mediated activity and their pharmacokinetic profiles.

METH-conditioned rats = test: METH-induced conditioned place preference (CPP) with simultaneous motor sensitization; assay type: in vivo, rat
Description: The CPP box (Accuscan, Columbus, Ohio) consists of three Plexiglas compartments, each with distinct visual and tactile cues (on one side, patterned floor with object attached and horizontally striped wall; on the opposite side, smooth floor with no object and vertically striped walls; center—uniformly white floor and walls). The center compartment can be separated from the left and right compartments by removable guillotine doors. Motor activity in three dimensional space, and time spent, in each compartment is detected by two sets of photobeams set at different heights from the floor. Drug conditioning is performed by administering METH to the rat while it is in one compartment, and on the alternating day, saline is administered while the rat is confined to the opposite compartment. Confinement was achieved by blocking access to other compartments using the guillotine door. The center compartment is not seen by the rat during conditioning, and all conditioning sessions last for 45 min.
The inventors have determined that the number of METH-pairings, and the dose of METH, dictate the strength of the drug-environment association (i.e., the magnitude of salience attribution). The test for CPP is determined in a METH-free state (i.e., at least 48 hr after that last METH pairing), at which time the rats are placed in the center compartment and allowed free access to all compartments for 30 min, and the time spent in each compartment is the index of preference. The inventors have determined that the number of METH-pairings, and the dose of METH, dictate the strength of the drug-environment association (i.e., the magnitude of salience attribution) and thus the amount of time spent in the compartment previously paired with METH (FIG. 7), as well as persistence of this effect (i.e., how long it lasts; FIG. 8A). METH-induced motor sensitization can be assessed in several ways, including assessing the capacity of the rat to express an enhanced motor response to an acute METH challenge (FIGS. 9 & 10A).
To efficiently apply this approach to testing of 5-HT2A/2C antagonists, we determined that single pairing protocols of the CPP paradigm can be used to predict efficacy outcomes of 5-HT2A/2C antagonists in long-term tests on these drugs evaluating their capacity to nullify the persistent enhanced salience induced by METH. […] Thus, these protocols should help predict the capacity of novel therapeutic targets to halt a common problem of drug relapse, i.e., the ability of re-exposure to drugs like METH to immediately reinstate their abuse.

CN1CCN2c3ncccc3Cc3ccccc3[C@@H]2C1 (racemic) [mirtazapine, 1,2,3,4,10,14b-hexahydro-2-methyl-pyrazino[2,1-a]pyrido[2,3-c]benzazepine]
Ki (α1): 500 nM | Ki (5-HT3): 8 nM | Ki (5-HT2C): 12 nM | Ki (D2): > 1000 nM | vertical movement suppression seen in METH-pretreated rats (METH-sensitized rats; mirtazapine 5 mg/kg x 15 days): attenuation of the vertical movement suppression | decreases in total distance traveled and time spent ambulating induced by METH pretreatments (METH-sensitized rats; mirtazapine 5 mg/kg x 15 days, data not shown): attenuated the decreases | horizontal activity (METH-sensitized rats; mirtazapine 5 mg/kg x 15 days, first 60 min after acute METH challenge): slight attenuation | potentiation of METH-induced sensitization for any assessed behavior (METH-sensitized rats; mirtazapine daily 5 mg/kg x 15 days): did not potentiate | overall attenuation of METH-sensitized responses (METH-sensitized rats; mirtazapine daily 5 mg/kg x 15 days, M-F): greatest overall attenuation | mirtazapine+saline group vs saline+saline pretreated rats (METH-sensitized rats; mirtazapine daily 5 mg/kg x 15 days, saline-pretreated): did not differ | preference to the place previously paired with METH (CPP expression) (METH-conditioned rats; 3 pairings 1 mg/kg ip METH, ten once-daily 5 mg/kg ip mirtazapine during withdrawal, day 20 (FIG. 8B)): completely reverse | associated motor sensitization (number of rears) (METH-conditioned rats; mirtazapine during METH withdrawal, METH challenge day 22 (FIG. 10B)): completely reverse | ability of subsequent METH pairings to induce CPP (reinstatement) (METH-conditioned rats; repeated mirtazapine during withdrawal, day 25 (FIG. 12)): renders ineffective | CPP expression after single pairing of 1.0 mg/kg METH (METH-conditioned rats; single home cage injection 0.5, 1.0 or 5.0 mg/kg mirtazapine 24 h before test (FIG. 11)): reversal of METH-induced CPP
